Measured values reported in EP0812190B1 (priority 1993, dated 1995).
Read-outs that look alike come from different tables or passages of the source.

What was measured:
[1] = test system: guinea-pig ileum; assay: tissue or blood; conditions: Cavia porcellus, read-out: Percent relaxation
[2] = test system: rabbit jejunum; assay: Tyramine potentiation in rabbit jejunum preparation
[3] = test system: anoxia-induced hyperactive syndrome; conditions: 0.5 mg/kg/day to nursing mothers
Procedure: Anoxia was performed on rat pups on the first post-natal day. They were placed in a glass chamber and exposed to 100% nitrogen for 25 minutes. They were resuscitated by intermittent massage softly applied to the chest and then returned to their respective mothers. Control rats received the same treatment but with air instead of nitrogen.
Locomotion was measured in 6 fully computerized cages (28 x 28 cm) by recording the number of crossings over a given period of time. Crossings of grid infrared beams at 4-cm intervals initiated electrical impulses which fed a counter.
Recordings of motor activity were made at the ages of 15 and 20 days, over a period of 15 minutes.

[4] = molecular target: T1, MAO-A (Rattus norvegicus, UniProt P21396); assay: Inhibition of MAO activity in vivo, acute treatment, MAO-A; parameters: MAO activity determined in brain and liver using the general technique described above; from tissue; host or cells: brain and liver of treated rats
T1 sequence (P21396 1-526): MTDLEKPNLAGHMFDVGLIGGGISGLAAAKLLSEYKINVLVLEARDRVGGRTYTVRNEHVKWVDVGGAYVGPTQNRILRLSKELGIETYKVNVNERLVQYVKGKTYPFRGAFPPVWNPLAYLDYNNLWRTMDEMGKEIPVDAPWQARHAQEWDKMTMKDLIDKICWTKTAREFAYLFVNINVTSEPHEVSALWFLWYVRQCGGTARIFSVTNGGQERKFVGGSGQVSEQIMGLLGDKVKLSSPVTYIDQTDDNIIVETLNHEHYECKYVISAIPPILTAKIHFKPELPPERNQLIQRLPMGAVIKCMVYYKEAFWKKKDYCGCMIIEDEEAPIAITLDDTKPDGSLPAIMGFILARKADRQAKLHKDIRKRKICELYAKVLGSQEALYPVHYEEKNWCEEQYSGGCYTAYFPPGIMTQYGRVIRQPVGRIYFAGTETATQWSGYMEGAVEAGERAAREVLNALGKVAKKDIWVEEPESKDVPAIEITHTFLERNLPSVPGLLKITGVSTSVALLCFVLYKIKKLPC
Procedure: Groups of three rats were used for each dose level of inhibitor, and MAO activity determined in brain and liver using the general technique described above. The amount of protein in each incubation was determined using the Folin-Lowry method, and enzyme activity calculated as nmol of substrate metabolized per hour of incubation for each mg of protein. Activity of MAO in tissues from animals treated with inhibitors was expressed as a percentage of the enzyme activity in a group of control animals administered vehicle (water for oral administration, 0.9% saline for ip injection) and killed as above.

[5] = test system: passive avoidance response
Procedure: [R] (+)PAI or [S] (-)PAI were administered according to one of the following protocols.
Protocol A - Nursing mothers were given a dose of either isomer of 1-1.5 mg/kg/day in drinking water until weaning at 21 days. Following that, the weaned offsprings were directly treated with the same dose for 20 days. Treatment was terminated at 40 days and the test was performed at 60 days, that is 20 days after the last dose of the drug.
Protocol B - The dose was reduced to 0.5 mg/kg/day administered to the nursing mother until weaning at 21 days, then directly to the young rats to 60 days at which time the test was performed. ,
Passive Avoidance Test - The apparatus consisted of a lit chamber adjoining a dark chamber and a sliding door separating the two. At training, a rat was placed in the lit chamber for 30 seconds, and then the door was opened. The rat moved to the dark chamber with a latency that was recorded. Upon entry of the rat into the dark compartment, the door was closed and a 0.3 mA foot-shock was delivered for 3 seconds.

[6] = test system: MPTP-induced striatal dopamine depletions; assay: Suppression of MPTP-induced dopaminergic toxicity (striatal DA and DOPAC); format: in vivo, mice; conditions: striatum
Procedure: Brains were removed and corpora striata dissected on an ice-cold glass plate and frozen on dry ice. Striatal tissues were homogenized in 0.1 M perchloric acid, and deproteinized aliquots containing dihydroxybenzylamine as an internal standard were assayed for dopamine and its major metabolite 3,4-dihydroxy-phenylacetic acid (DOPAC) using HPLC with electrochemical detection.

[7] = test system: guinea-pig ileum; assay: tissue or blood; conditions: Cavia porcellus, read-out: Percent relaxation; remark: listed apart in the source
[8] = dose producing 50% inhibition, rat, i.p., 1h
[9] = dose producing 50% inhibition, rat, p.o., 2h
[10] = Protocol A, Anoxia-lesioned rats
[11] = Protocol B, Anoxia-lesioned rats

C#CCN[C@@H]1CCc2ccccc21 [[R](+)PAI, R(+)-N-propargyl-1-aminoindan]
inhibition at 2 µM [1]: 0% | inhibition at 4 µM [1]: 0% | inhibition at 10 µM [1]: 0% | inhibition at 40 µM [1]: 37% | inhibition at 400 µM [1]: 100% | inhibition at 700 µM [1]: 100% | Percent relaxation ([2]; PAI HCl enantiomer alone 0.2-4.0 µM): 0% | Percent relaxation ([2]; tyramine 40 µM after 0.2 µM PAI HCl enantiomer): 67% | Percent relaxation ([2]; tyramine 40 µM after 2 µM PAI HCl enantiomer): 88% | Percent relaxation ([2]; tyramine 40 µM after 40 µM PAI HCl enantiomer): 85-90% | numbers of crossings of infrared beam grid over 15 minutes ([3]; Anoxia-lesioned, 15-day old rats): 276 ± 186(15)a | numbers of crossings of infrared beam grid over 15 minutes ([3]; Anoxia-lesioned, 20-day old rats): 737 ± 150 (16) c | numbers of crossings of infrared beam grid over 15 minutes ([3]; Control, 15-day old rats): 254 ± 149(11)c | numbers of crossings of infrared beam grid over 15 minutes ([3]; Control, 20-day old rats): 719 ± 110(13) | inhibition of MAO-A activity ([4]; brain, 0.5mg/kg i.p., single dose): 20% | inhibition of MAO-A ([4]; brain, 0.5mg/kg oral, single dose): no detectable inhibition | IC-50 MAO-A I.P. BRAIN [4, 8]: 1.2 mg/kg | IC-50 MAO-A I.P. LIVER [4, 8]: 5 mg/kg | IC-50 MAO-A P.O. BRAIN [4, 9]: >5 mg/kg | IC-50 MAO-A P.O. LIVER [4, 9]: >5 mg/kg | latency After Electroshock [5, 10]: 239 ± 99 s | latency Before Electroshock [5, 10]: 49 ± 10 s | percent increase of latency After Electroshock ([5]; Protocol A, Anoxia-lesioned rats, versus corresponding anoxia group): 19% | latency After Electroshock ([5]; Protocol A, Control rats): 220 ± 100 s | percent increase of latency After Electroshock ([5]; Protocol A, Control rats, versus corresponding control group): +9% | latency Before Electroshock ([5]; Protocol B (0.5 mg/kg/day), Control rats): 48 ± 11 s | latency After Electroshock [5, 11]: 137 ± 126 s | latency Before Electroshock [5, 11]: 52 ± 12 s | percent increase of latency After Electroshock [5, 11]: +15% | latency After Electroshock ([5]; Protocol B, Control rats): 128 ± 119 s | percent increase of latency After Electroshock ([5]; Protocol B, Control rats): +23% | DOPAC ([6]; drug alone (PAI isomers […] i.p., deprenyl 5 mg/kg i.p.)): 3.3±0.3 ng/mg protein | DA ([6]; drug alone (PAI isomers […] i.p., deprenyl 5 mg/kg i.p.), Mean±S.E.M.): 185.0±6.9 ng/mg protein | DA ([6]; pretreatment one hour before MPTP-HCl 30 mg/kg s.c. (PAI isomers […] i.p., deprenyl 5 mg/kg i.p.), 5 days later): 177.8±14.4 ng/mg protein | DOPAC ([6]; pretreatment one hour before MPTP-HCl 30 mg/kg s.c., 5 days later): 6.0±0.3 ng/mg protein | inhibition at 60 µM [7]: 25 to 50%
